According to patent publication US10206388B2, “Formulation component” (SYNGENTA LIMITED, priority 2011, dated 2019):

Key:
Format in all cases: in vivo
[1] = system: four weed species (ABUTH, CHEAL, DIGSA, SETVI); assay: Glasshouse weed test, nicosulfuron with adjuvants, mean across species; settings: Table 27, Example 24: nicosulfuron 30 or 60 g/ha; mean over two rates, three replicates, 14 and 21 days
Protocol: The aromatic ester Finsolv® TN (C12-C15 alkyl benzoate) was tested in a glasshouse against four weed species using the herbicide nicosulfuron. An agrochemical composition was prepared containing 0.2% v/v of the adjuvant in a track sprayer, and was applied at a volume of 200 liters per hectare. Nicosulfuron was applied at either 30 or 60 grams of pesticide per hectare on each of the weed species. The weed species and their growth stage at spraying were Abutilon theophrasti (ABUTH; growth stage 13), Chenopodium album (CHEAL; growth stage 14), Digitaria sanguinalis (DIGSA; growth stage 13), and Setaria viridis (SETVI; growth stage 13).
(§1) Each spray test replicated three times. The efficacy of the herbicide was assessed visually and expressed as a percentage of the leaf area killed. Samples were assessed at time periods of 7, 14 and 20 days following application. The results shown in Table 6 below are mean averages over the two rates of nicosulfuron, three replicates and the three assessment timings, and are compared to the efficacy of nicosulfuron in the absence of an adjuvant, and nicosulfuron in the presence of the commercially available tank-mix adjuvant, Atplus411F®.
A second experiment was conducted to assess the efficacy of Finsolv® TN as an adjuvant in compositions of nicosulfuron. This was carried out as outlined above, with the following change: samples were assessed at 14 and 20 days post application.
The results shown in Table 7 below are mean averages over the two rates of nicosulfuron, three replicates and the two assessment timings, and are compared to the efficacy of nicosulfuron in the absence of an adjuvant, and nicosulfuron in the presence of the commercially available tank-mix adjuvant, Atplus411F®.
The aromatic esters Benzoate 1 (see Example 9), Benzoflex 354 (2,2,4-trimethyl-1,3-pentanediol dibenzoate) and Finsolv® SB (stearyl benzoate) were tested in a glasshouse against four weed species using the herbicide nicosulfuron. Nicosulfuron was applied at either 30 or 60 grams of pesticide per hectare on each of the weed species. The weed species and their growth stage at spraying were Abutilon theophrasti (ABUTH; growth stage 13), Chenopodium album (CHEAL; growth stage 14), Digitaria sanguinalis (DIGSA; growth stage 13), and Setaria viridis (SETVI; growth stage 13).
as §1, with “of” for “of 7,”, “Table 14” for “Table 6”, “the two” for “the three”
An agrochemical composition was prepared containing 0.2% v/v of the adjuvant in a track sprayer and was applied at a volume of 200 liters per hectare. The adjuvant oils were emulsified using a small amount of the surfactant Pluronic® PE 10500, which was present in the composition at a concentration of 0.02% v/v. Nicosulfuron was applied at either 30 or 60 grams of pesticide per hectare on each of the weed species. The weed species and their growth stage at spraying were Abutilon theophrasti (ABUTH; growth stage 13), Chenopodium album (CHEAL; growth stage 14-15), Digitaria sanguinalis (DIGSA; growth stage 14), and Setaria viridis (SETVI; growth stage 13-14).
Each spray test replicated three times. The efficacy of the herbicide was assessed visually and expressed as a percentage of the leaf area killed. Samples were assessed at time periods of 14 and 21 days following application. […]

[2] = system: Alopecurus myosuroides (ALOMY); assay: Glasshouse weed test, pinoxaden with adjuvants; settings: Table 12, Example 8: pinoxaden 7.5 or 15 g/ha; adjuvant 0.2% v/v; Atlas G5000 in spray tank; mean over two rates, three replicates, 7, 14 and 20 days
Protocol: (§2) The aromatic ester Finsolv® TN (C12-C15 alkyl benzoate) was tested in a glasshouse against four weed species using the herbicide pinoxaden. An agrochemical composition was prepared containing 0.2% v/v of the adjuvant in a track sprayer and was applied at a volume of 200 liters per hectare. Pinoxaden was applied at either 7.5 or 15 grams of pesticide per hectare on each of the weed species. […] The weed species and their growth stage at spraying were Alopecurus myosuroides (ALOMY; growth stage 13), Avena fatua (AVEFA; growth stage 12); Lolium perenne (LOLPE; growth stage 13), Setaria viridis (SETVI; growth stage 14).
as §1, with “test was” for “test”, “12” for “6”, “pinoxaden,” for “nicosulfuron,”, “pinoxaden” for “nicosulfuron”, “adjuvant” for “adjuvant,”, “triethylhexyl phosphate.” for “the commercially available tank-mix adjuvant, Atplus411F®.”

Avena fatua (AVEFA) = assay: Glasshouse weed test, pinoxaden with adjuvants; settings: Table 12, Example 8: pinoxaden 7.5 or 15 g/ha; adjuvant 0.2% v/v; Atlas G5000 in spray tank; mean over two rates, three replicates, 7, 14 and 20 days
Protocol: as §2
as §1, with “test was” for “test”, “12” for “6”, “pinoxaden,” for “nicosulfuron,”, “pinoxaden” for “nicosulfuron”, “adjuvant” for “adjuvant,”, “triethylhexyl phosphate.” for “the commercially available tank-mix adjuvant, Atplus411F®.”

Lolium perenne (LOLPE) = assay: Glasshouse weed test, pinoxaden with adjuvants; settings: Table 12, Example 8: pinoxaden 7.5 or 15 g/ha; adjuvant 0.2% v/v; Atlas G5000 in spray tank; mean over two rates, three replicates, 7, 14 and 20 days
Protocol: as §2
as §1, with “test was” for “test”, “12” for “6”, “pinoxaden,” for “nicosulfuron,”, “pinoxaden” for “nicosulfuron”, “adjuvant” for “adjuvant,”, “triethylhexyl phosphate.” for “the commercially available tank-mix adjuvant, Atplus411F®.”

Setaria viridis (SETVI) = assay: Glasshouse weed test, pinoxaden with adjuvants; settings: Table 12, Example 8: pinoxaden 7.5 or 15 g/ha; adjuvant 0.2% v/v; Atlas G5000 in spray tank; mean over two rates, three replicates, 7, 14 and 20 days
Protocol: as §2
as §1, with “test was” for “test”, “12” for “6”, “pinoxaden,” for “nicosulfuron,”, “pinoxaden” for “nicosulfuron”, “adjuvant” for “adjuvant,”, “triethylhexyl phosphate.” for “the commercially available tank-mix adjuvant, Atplus411F®.”

[3] = system: four weed species (ALOMY, AVEFA, LOLPE, SETVI); assay: Glasshouse weed test, pinoxaden with adjuvants, mean across species; settings: mean over two rates
Protocol: as §2
as §1, with “test was” for “test”, “12” for “6”, “pinoxaden,” for “nicosulfuron,”, “pinoxaden” for “nicosulfuron”, “adjuvant” for “adjuvant,”, “triethylhexyl phosphate.” for “the commercially available tank-mix adjuvant, Atplus411F®.”
A second experiment was conducted to assess the efficacy of Finsolv® TN as an adjuvant for pinoxaden. This was carried out as outlined above, with the following change: samples were assessed at 14 and 20 days post application. The results shown below in Table 13 are mean averages over the two rates of pinoxaden, three replicates, the two assessment timings, and the four weed species, and are compared to the efficacy of pinoxaden in the absence of an adjuvant and pinoxaden in the presence of the common adjuvant methyl oleate.
as §2, with “An” for “The aromatic ester Finsolv® TN (C12-C15 alkyl benzoate) was tested in a glasshouse against four weed species using the herbicide pinoxaden. An”
as §1, with “test was” for “test”, “17” for “6”, “pinoxaden,” for “nicosulfuron,”, “pinoxaden” for “nicosulfuron”, “adjuvant” for “adjuvant,”, “Brij®96.” for “the commercially available tank-mix adjuvant, Atplus411F®.”
An agrochemical composition was prepared containing 0.2% v/v of the adjuvant in a track sprayer and was applied at a volume of 200 liters per hectare. The adjuvant oils were emulsified using a small amount of the surfactant Pluronic® PE 10500, which was present in the composition at a concentration of 0.02% v/v. Pinoxaden was applied at either 7.5 or 15 grams of pesticide per hectare on each of the weed species. […] The weed species and their growth stage at spraying were Alopecurus myosuroides (ALOMY; growth stage 13), Avena fatua (AVEFA; growth stage 12); Lolium perenne (LOLPE; growth stage 13), Setaria viridis (SETVI; growth stage 13-14).
Each spray test was replicated three times. The efficacy of the herbicide was assessed visually and expressed as a percentage of the leaf area killed. Samples were assessed at time periods of 14 and 21 days following application. The results shown in Table 18 below are mean averages over the two rates of pinoxaden, three replicates and the two assessment timings, and are compared to the efficacy of pinoxaden in the absence of an adjuvant and pinoxaden in the presence of tris 2ethylhexylphosphate (TEHP).
The aromatic esters Finsolv® TN and the aromatic ester ethoxylate Dermol 25-3B were tested in a glasshouse against four weed species using the herbicide pinoxaden. […]

CCc1cc(C)cc(CC)c1-c1c(OC(=O)C(C)(C)C)n2n(c1=O)CCOCC2 [Pinoxaden, pinoxaden]
Mean percentage kill, Mean across species [1]: 46.6C % | Mean percentage kill ALOMY [2]: 1.1 B % | Mean percentage kill AVEFA (Avena fatua (AVEFA)): 2.8 B % | Mean percentage kill LOLPE (Lolium perenne (LOLPE)): 5.0 B % | Mean percentage kill SETVI (Setaria viridis (SETVI)): 0.8 B % | Mean percentage kill, Mean across species ([3]; Table 12, Example 8: pinoxaden 7.5 or 15 g/ha, adjuvant 0.2% v/v, Atlas G5000 in spray tank, three replicates, 7, 14 and 20 days): 2.43 B % | Mean percentage kill, Mean across species ([3]; Table 13, Example 8 second experiment: pinoxaden 7.5 or 15 g/ha, adjuvant 0.2% v/v, three replicates, 14 and 20 days, four weed species): 0.5 B % | Mean percentage kill, Mean across species ([3]; Table 17, Example 13: pinoxaden 7.5 or 15 g/ha, adjuvant 0.2% v/v, Atlas G5000 in spray tank, three replicates, 7, 14 and 20 days): 1.8 C % | Mean percentage kill, Mean across species ([3]; Table 18, Example 14: pinoxaden 7.5 or 15 g/ha, adjuvant 0.2% v/v emulsified with Pluronic PE 10500 0.02% v/v, three replicates, 14 and 21 days): 2.6B % | Mean percentage kill, Mean across species ([3]; Table 22, Example 18: absence of an adjuvant, pinoxaden 7.5 or 15 g/ha, three replicates, 14 and 21 days): 3.6E % | Mean percentage kill, Mean across species ([3]; Table 26, Example 23: pinoxaden 7.5 or 15 g/ha, adjuvant 0.2% v/v, Atlas G5000, three replicates, 14 and 21 days): 4.0C % | Mean percentage kill, Mean across species ([3]; Table 32, Example 32: pinoxaden 7.5 or 15 g/ha, adjuvant 0.2% v/v, Atlas G5000, three replicates, 14 and 21 days): 3.6B %
